Experiments:
[1] = target: T1, Muscarinic acetylcholine receptor M1 (Homo sapiens, UniProt P11229); type: functional, cell-based
T1 sequence (P11229 whole entry): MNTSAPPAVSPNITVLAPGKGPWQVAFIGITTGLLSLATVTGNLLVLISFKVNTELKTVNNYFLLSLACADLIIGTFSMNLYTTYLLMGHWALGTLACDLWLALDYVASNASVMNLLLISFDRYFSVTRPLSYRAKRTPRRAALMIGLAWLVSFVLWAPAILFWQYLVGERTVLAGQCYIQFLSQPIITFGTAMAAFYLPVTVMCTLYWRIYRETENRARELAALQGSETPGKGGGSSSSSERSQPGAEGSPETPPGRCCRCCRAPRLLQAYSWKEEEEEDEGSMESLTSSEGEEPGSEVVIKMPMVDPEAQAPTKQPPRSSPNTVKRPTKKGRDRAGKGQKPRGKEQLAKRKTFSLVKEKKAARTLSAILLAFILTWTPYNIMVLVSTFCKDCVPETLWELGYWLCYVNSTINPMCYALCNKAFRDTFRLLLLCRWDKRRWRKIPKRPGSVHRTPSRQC

[2] = target: T2, Androgen receptor (Homo sapiens, UniProt P10275)
T2 sequence (P10275 whole entry): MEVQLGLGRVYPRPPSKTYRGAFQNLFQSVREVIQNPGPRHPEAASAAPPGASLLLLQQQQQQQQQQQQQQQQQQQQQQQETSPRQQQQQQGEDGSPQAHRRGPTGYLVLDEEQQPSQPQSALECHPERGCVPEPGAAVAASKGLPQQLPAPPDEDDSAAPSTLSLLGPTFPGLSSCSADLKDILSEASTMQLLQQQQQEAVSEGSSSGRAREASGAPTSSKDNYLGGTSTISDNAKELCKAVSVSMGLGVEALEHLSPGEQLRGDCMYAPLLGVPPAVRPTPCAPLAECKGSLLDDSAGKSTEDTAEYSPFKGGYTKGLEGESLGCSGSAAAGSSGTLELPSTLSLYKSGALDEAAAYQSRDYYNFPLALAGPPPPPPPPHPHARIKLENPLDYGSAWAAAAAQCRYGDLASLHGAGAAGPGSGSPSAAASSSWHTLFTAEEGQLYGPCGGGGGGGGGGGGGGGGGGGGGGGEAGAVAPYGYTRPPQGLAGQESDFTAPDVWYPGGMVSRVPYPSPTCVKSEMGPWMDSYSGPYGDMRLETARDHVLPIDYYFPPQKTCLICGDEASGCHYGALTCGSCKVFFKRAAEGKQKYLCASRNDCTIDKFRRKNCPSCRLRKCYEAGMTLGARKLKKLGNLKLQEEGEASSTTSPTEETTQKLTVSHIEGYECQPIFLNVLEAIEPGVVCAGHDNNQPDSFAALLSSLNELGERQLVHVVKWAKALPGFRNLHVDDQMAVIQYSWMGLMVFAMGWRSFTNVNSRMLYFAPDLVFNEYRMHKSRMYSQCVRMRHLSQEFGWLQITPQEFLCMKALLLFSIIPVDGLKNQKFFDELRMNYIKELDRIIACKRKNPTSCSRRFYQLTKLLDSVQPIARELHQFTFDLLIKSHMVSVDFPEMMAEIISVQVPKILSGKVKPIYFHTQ

[3] = target: T3, Alpha-2C adrenergic receptor (Homo sapiens, UniProt P18825); type: functional
T3 sequence (P18825 whole entry): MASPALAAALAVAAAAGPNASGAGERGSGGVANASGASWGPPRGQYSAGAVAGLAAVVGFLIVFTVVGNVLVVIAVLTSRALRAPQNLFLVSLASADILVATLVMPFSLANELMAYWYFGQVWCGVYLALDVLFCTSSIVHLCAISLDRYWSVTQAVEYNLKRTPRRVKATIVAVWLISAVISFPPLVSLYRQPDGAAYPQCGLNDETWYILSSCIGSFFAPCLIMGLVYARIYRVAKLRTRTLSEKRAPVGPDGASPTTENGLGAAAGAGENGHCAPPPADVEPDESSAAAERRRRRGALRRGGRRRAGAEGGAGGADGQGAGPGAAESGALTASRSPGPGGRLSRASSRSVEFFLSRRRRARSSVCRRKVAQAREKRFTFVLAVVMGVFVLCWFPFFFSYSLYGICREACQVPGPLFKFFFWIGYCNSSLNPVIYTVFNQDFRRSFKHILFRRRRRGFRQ

[4] = target: Cannabinoid receptor 1 (Homo sapiens, UniProt P21554); type: functional, cell-based
[5] = target: T4, Type-1 angiotensin II receptor (Homo sapiens, UniProt P30556)
T4 sequence (P30556 whole entry): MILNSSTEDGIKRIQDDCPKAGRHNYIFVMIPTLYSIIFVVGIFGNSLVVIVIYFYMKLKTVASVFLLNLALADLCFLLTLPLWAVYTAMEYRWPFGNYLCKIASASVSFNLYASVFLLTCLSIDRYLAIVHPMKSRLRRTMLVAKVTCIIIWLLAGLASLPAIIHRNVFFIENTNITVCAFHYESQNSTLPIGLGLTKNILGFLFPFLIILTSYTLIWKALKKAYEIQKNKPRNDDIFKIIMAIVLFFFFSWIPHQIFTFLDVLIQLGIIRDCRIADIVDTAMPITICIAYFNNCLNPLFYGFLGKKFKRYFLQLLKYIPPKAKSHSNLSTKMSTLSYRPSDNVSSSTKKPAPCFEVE

[6] = target: Growth hormone secretagogue receptor type 1 (Homo sapiens, UniProt Q92847)
[7] = target: T5, Prostaglandin G/H synthase 1 (Rattus norvegicus, UniProt Q63921); type: functional
T5 sequence (Q63921 whole entry): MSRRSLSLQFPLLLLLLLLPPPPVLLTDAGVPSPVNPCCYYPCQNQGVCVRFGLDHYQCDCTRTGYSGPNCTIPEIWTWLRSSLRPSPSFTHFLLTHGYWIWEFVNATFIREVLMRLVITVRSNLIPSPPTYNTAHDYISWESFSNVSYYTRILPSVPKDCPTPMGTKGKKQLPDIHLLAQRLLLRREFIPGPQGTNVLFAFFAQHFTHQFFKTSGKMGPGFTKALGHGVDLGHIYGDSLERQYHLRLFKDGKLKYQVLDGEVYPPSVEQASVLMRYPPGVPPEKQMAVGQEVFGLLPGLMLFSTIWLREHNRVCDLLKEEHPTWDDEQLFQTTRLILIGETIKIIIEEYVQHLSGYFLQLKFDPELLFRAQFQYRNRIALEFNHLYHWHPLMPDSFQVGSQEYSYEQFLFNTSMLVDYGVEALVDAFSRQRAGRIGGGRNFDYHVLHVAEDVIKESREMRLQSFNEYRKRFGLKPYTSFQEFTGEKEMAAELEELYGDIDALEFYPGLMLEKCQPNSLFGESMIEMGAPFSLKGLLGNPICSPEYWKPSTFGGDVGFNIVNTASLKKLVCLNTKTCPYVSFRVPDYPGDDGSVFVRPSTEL
Also: assay procedure not described here.

Sequence of Cannabinoid receptor 1 (P21554 whole entry): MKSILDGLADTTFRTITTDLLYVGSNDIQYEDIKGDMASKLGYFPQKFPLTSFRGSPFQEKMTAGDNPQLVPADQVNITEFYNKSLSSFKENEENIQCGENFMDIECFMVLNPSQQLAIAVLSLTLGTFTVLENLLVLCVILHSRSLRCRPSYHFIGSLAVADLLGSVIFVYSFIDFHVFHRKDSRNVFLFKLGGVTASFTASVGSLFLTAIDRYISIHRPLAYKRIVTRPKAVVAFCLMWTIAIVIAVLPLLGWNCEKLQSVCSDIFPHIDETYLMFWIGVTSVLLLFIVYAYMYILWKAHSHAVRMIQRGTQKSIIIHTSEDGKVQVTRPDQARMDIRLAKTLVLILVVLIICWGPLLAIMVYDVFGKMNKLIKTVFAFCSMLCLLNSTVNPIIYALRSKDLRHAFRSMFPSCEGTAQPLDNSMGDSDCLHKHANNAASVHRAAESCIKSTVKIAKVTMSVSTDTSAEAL
Sequence of Growth hormone secretagogue receptor type 1 (Q92847 whole entry): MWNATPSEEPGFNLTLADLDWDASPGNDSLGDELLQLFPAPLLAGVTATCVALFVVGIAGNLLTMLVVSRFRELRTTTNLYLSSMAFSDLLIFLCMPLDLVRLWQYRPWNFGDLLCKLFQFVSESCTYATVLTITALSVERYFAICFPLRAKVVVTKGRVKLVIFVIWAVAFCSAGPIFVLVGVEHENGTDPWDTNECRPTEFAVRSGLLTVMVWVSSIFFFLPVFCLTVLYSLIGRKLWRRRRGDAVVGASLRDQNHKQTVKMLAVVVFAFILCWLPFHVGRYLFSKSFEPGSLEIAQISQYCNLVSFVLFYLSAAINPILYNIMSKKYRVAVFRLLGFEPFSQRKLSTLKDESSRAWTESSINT

Row | SMILES | AC50 [1] | AC50 [2] | also measured
1 | CC[C@@H]1C[C@]1(NC(=O)[C@@H]1C[C@@H]2CN1C(=O)[C@H](C(C)(C)C)NC(=O)OCC(C)(C)CCCCc1cccc3c1CN(C3)C(=O)O2)C(=O)NS(=O)(=O)C1CC1 | > 3 µM | > 30 µM | –
2 | CC(=O)NO [ACETOHYDROXAMIC ACID] | > 30 µM | > 30 µM | –
3 | C=C(C)CNc1ccc(C(C)C(=O)O)cc1 (configuration not stated) [ALMINOPROFEN] | > 30 µM | > 30 µM | –
4 | C[C@H]1CN(C[C@H](Cc2ccccc2)C(=O)NCC(=O)O)CC[C@@]1(C)c1cccc(O)c1 [ALVIMOPAN] | > 30 µM | > 30 µM | –
5 | CC(C)NC(=N)NC(=N)Nc1ccc(Cl)c(Cl)c1 [CHLORPROGUANIL] | – | > 30 µM | AC50 [3]: 8.9 µM; AC50 [4]: > 30 µM
6 | C[N+](C)(C)CCOP(=O)(O)OP(=O)([O-])OC[C@H]1O[C@@H](n2ccc(N)nc2=O)[C@H](O)[C@@H]1O [CITICOLINE] | > 30 µM | > 30 µM | AC50 [3]: > 30 µM; AC50 [4]: > 30 µM
7 | C[C@H]1O[C@@H](O[C@H]2CC[C@@]3(C)[C@H](CC[C@@H]4[C@@H]3C[C@@H](O)[C@]3(C)[C@@H](C5=CC(=O)OC5)CC[C@]43O)C2)C[C@H](O)[C@@H]1O[C@H]1C[C@H](O)[C@H](O[C@H]2C[C@H](O)[C@H](O[C@@H]3O[C@H](CO)[C@@H](O)[C@H](O)[C@H]3O)[C@@H](C)O2)[C@@H](C)O1 [DESLANOSIDE] | > 30 µM | > 30 µM | –
8 | O=C(O)Cc1ccccc1Nc1c(Cl)cccc1Cl [DICLOFENAC] | – | > 3 µM | AC50 [3]: > 10 µM; AC50 [5]: > 30 µM; AC50 [4]: > 30 µM; AC50 [6]: > 30 µM
9 | CN[C@@H]1[C@H](O[C@H]2[C@H](O[C@H]3[C@H](O)[C@@H](O)[C@H](NC(=N)N)[C@@H](O)[C@@H]3NC(=N)N)O[C@@H](C)[C@]2(O)CO)O[C@@H](CO)[C@H](O)[C@H]1O [DIHYDROSTREPTOMYCIN] | – | > 30 µM | –
10 | O=C(O)Cc1ccccc1Oc1ccc(Cl)cc1Cl [FENCLOFENAC] | 23.6 µM | – | AC50 [3]: > 10 µM; AC50 [5]: > 30 µM; AC50 [7]: > 30 µM; AC50 [4]: > 30 µM; AC50 [6]: > 30 µM
11 | CC(C)C(=O)Oc1ccc(CO)cc1[C@H](CCN(C(C)C)C(C)C)c1ccccc1 [FESOTERODINE] | 0.354 µM | > 30 µM | –
12 | Cc1ccc(C)c(OCCCC(C)(C)C(=O)O)c1 [GEMFIBROZIL] | – | > 30 µM | AC50 [3]: > 10 µM; AC50 [5]: > 30 µM; AC50 [7]: > 30 µM; AC50 [4]: > 30 µM; AC50 [6]: > 30 µM
13 | C#C[C@]1(O)C=C[C@H]2[C@@H]3CCC4=CC(=O)CC[C@@H]4[C@H]3CC[C@@]21CC [GESTODENE] | – | 0.003 µM | –
14 | COc1ccccc1OC1(C)OC(=O)c2ccccc2O1 (configuration not stated) [GUAIMESAL] | > 30 µM | > 30 µM | AC50 [5]: > 30 µM; AC50 [6]: > 30 µM
15 | N=C(N)N/N=C/c1c(Cl)cccc1Cl [GUANABENZ] | – | > 30 µM | –
16 | CCCCC(CC)CN1CN(CC(CC)CCCC)CC(C)(N)C1 (configuration not stated) [HEXETIDINE] | 9.85 µM | > 30 µM | –
17 | COc1cc(C(C)=O)ccc1OCCCN1CCC(c2noc3cc(F)ccc23)CC1 [ILOPERIDONE] | > 10 µM | – | AC50 [3]: 0.018 µM; AC50 [5]: > 30 µM; AC50 [7]: > 30 µM; AC50 [4]: > 30 µM; AC50 [6]: > 30 µM
18 | CC(C)[C@@H]1CC[C@@H](C)C[C@H]1O [LEVOMENTHOL] | > 30 µM | > 30 µM | –

Row | SMILES | AC50 [1] | AC50 [2] | also measured
19 | COC(=O)[C@@H](N)Cc1ccc(O)c(O)c1 [MELEVODOPA] | 22.1 µM | > 30 µM | –
20 | C[N+]1(C)CCCC(OC(=O)C(O)(c2ccccc2)c2ccccc2)C1 (configuration not stated) [MEPENZOLATE] | > 30 µM | – | –
21 | C=N[C@@H](C(=O)N[C@@H]1C(=O)N2[C@@H]1SC(C)(C)[C@@H]2C(=O)O)c1ccccc1 [METAMPICILLIN] | > 30 µM | – | –
22 | O=C(NNCS(=O)(=O)O)c1ccncc1 [METHANIAZIDE] | > 30 µM | – | –
23 | Cc1cc(=O)[nH]c(=S)[nH]1 [METHYLTHIOURACIL] | > 30 µM | – | –
24 | CN(C)c1ccc(O)c2c1C[C@H]1C[C@H]3[C@H](N(C)C)C(O)=C(C(N)=O)C(=O)[C@@]3(O)C(O)=C1C2=O [MINOCYCLINE] | > 30 µM | > 30 µM | –
25 | CCNC(=O)/C=C(C)/C=C/C=C(C)/C=C/c1c(C)cc(OC)c(C)c1C [MOTRETINIDE] | 16.6 µM | > 30 µM | –
26 | C=CC(=O)Nc1cccc(Oc2nc(Nc3ccc(N4CCN(C)CC4)cc3)nc3ccsc23)c1 [OLMUTINIB] | 2.29 µM | > 30 µM | –
27 | CCCCC1C(=O)N(c2ccccc2)N(c2ccc(O)cc2)C1=O (configuration not stated) [OXYPHENBUTAZONE ANHYDROUS] | > 30 µM | > 30 µM | –
28 | O=C(O)CN(CCN(CC(=O)O)CC(=O)O)CCN(CC(=O)O)CC(=O)O [PENTETIC ACID] | > 30 µM | – | –
29 | Nc1cccc2c1C(=O)N(C1CCC(=O)NC1=O)C2=O (configuration not stated) [POMALIDOMIDE] | > 30 µM | > 30 µM | –
30 | C[Se]CC[C@H](N)C(=O)O [SELENOMETHIONINE] | > 30 µM | – | –
31 | Cc1ccsc1C(=CCCN1CCC[C@@H](C(=O)O)C1)c1sccc1C [TIAGABINE] | > 30 µM | > 30 µM | –
32 | Cc1ccc(C(=O)c2ccc(CC(=O)O)n2C)cc1 [TOLMETIN] | – | > 30 µM | –
33 | Cc1ccccc1C(=O)Nc1ccc(C(=O)N2CCCC(O)c3cc(Cl)ccc32)c(C)c1 (configuration not stated) [TOLVAPTAN] | 11.3 µM | – | –
34 | CC[C@]12CCCN3CCc4c(n(c5ccccc45)[C@@](O)(C(=O)OC)C1)[C@@H]32 [VINCAMINE] | > 30 µM | > 30 µM | –
35 | O=C1Cc2cc(CCN3CCN(c4nsc5ccccc45)CC3)c(Cl)cc2N1 [ZIPRASIDONE] | 12.9 µM | – | AC50 [5]: > 30 µM; AC50 [7]: > 30 µM; AC50 [4]: > 30 µM; AC50 [6]: > 30 µM

From ChEMBL document CHEMBL5291721, “A preclinical secondary pharmacology resource illuminates target-adverse drug reaction associations of marketed drugs” (Nat Commun, 2023)
